Tests used:
Assay in all cases: relative viability (nuclei count vs DMSO), 5 days (fraction); higher = more cells survive
XMD8-85 + OSI-027 = compound: CN1CCN(CC1)C2=CC(=C(C=C2)NC3=NC=C4C(=N3)N(C5=CC=CC=C5C(=O)N4C)C)OC [XMD8-85] + COc1cccc2cc(-c3nc([C@H]4CC[C@H](C(=O)O)CC4)n4ncnc(N)c34)[nH]c12 [OSI-027] (partner 0.5 µM)
Procedure, shortened: (§1)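 A single step with final 0.05% Triton X-100, 1% formaldehyde and 1 ug/ml Hoechst fixed the cells and stained nuclei 5 days after treatment. Lung cancer cell lines in 1536-well plates had been treated by pin tool the day after seeding with one drug alone or a fixed anchor-drug dose plus five library-drug doses (not always all listed) in √10 steps, and nuclei were counted on 4× images. Relative viability is the ratio of nuclei in treated wells to nuclei in vehicle wells, taken as the median of duplicate plates.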

XMD8-85 + Linsitinib = compound: CN1CCN(CC1)C2=CC(=C(C=C2)NC3=NC=C4C(=N3)N(C5=CC=CC=C5C(=O)N4C)C)OC [XMD8-85] + C[C@]1(O)C[C@@H](c2nc(-c3ccc4ccc(-c5ccccc5)nc4c3)c3c(N)nccn32)C1 [Linsitinib] (partner 1 µM)
Procedure, shortened: as §1

4EGI-1 + Luminespib = compound: O=C(O)C(Cc1ccccc1[N+](=O)[O-])=NNc1nc(-c2ccc(Cl)c(Cl)c2)cs1 (mixture of isomers) [4EGI-1] + CCNC(=O)c1noc(-c2cc(C(C)C)c(O)cc2O)c1-c1ccc(CN2CCOCC2)cc1 [Luminespib] (partner 0.01 µM)
Procedure, shortened: as §1

XMD8-85 + Phenformin = compound: CN1CCN(CC1)C2=CC(=C(C=C2)NC3=NC=C4C(=N3)N(C5=CC=CC=C5C(=O)N4C)C)OC [XMD8-85] + N=C(N)NC(=N)NCCc1ccccc1 [Phenformin] (partner 250 µM)
Procedure, shortened: as §1

Work on CAL-12T yielded a relative viability (XMD8-85 + OSI-027; first compound 0.08 µM) of 0.556, a relative viability (XMD8-85 + OSI-027; first compound 0.253 µM) of 0.735 and a relative viability (XMD8-85 + OSI-027; first compound 0.8 µM) of 0.693. It also gave a relative viability (XMD8-85 + OSI-027; first compound 2.53 µM) of 0.409, a relative viability (XMD8-85 + OSI-027; first compound 8 µM) of 0.235 and a relative viability (XMD8-85 + Linsitinib; first compound 0.08 µM) of 0.677. For the same cell line, the relative viability (XMD8-85 + Linsitinib; first compound 0.253 µM) was 0.656, the relative viability (XMD8-85 + Linsitinib; first compound 0.8 µM) was 0.802 and the relative viability (XMD8-85 + Linsitinib; first compound 2.53 µM) was 0.808. For the same cell line, the relative viability (XMD8-85 + Linsitinib; first compound 8 µM) was 0.595, the relative viability (4EGI-1 + Luminespib; first compound 0.5 µM) was 0.411 and the relative viability (4EGI-1 + Luminespib; first compound 1.581 µM) was 0.149. The relative viability (4EGI-1 + Luminespib; first compound 5 µM) was 0.186, the relative viability (4EGI-1 + Luminespib; first compound 15.81 µM) was 0.4 and the relative viability (4EGI-1 + Luminespib; first compound 50 µM) was 0.251. For the same cell line, the relative viability (XMD8-85 + Phenformin; first compound 0.08 µM) was 0.575, the relative viability (XMD8-85 + Phenformin; first compound 0.253 µM) was 0.528 and the relative viability (XMD8-85 + Phenformin; first compound 0.8 µM) was 0.537. For the same cell line, the relative viability (XMD8-85 + Phenformin; first compound 2.53 µM) was 0.517 and the relative viability (XMD8-85 + Phenformin; first compound 8 µM) was 0.369.

NCI-H3122 was tested, and the relative viability (XMD8-85 + OSI-027; first compound 0.08 µM) was 0.867, the relative viability (XMD8-85 + OSI-027; first compound 0.253 µM) was 1.02 and the relative viability (XMD8-85 + OSI-027; first compound 0.8 µM) was 1.34. It also gave a relative viability (XMD8-85 + OSI-027; first compound 2.53 µM) of 1.08, a relative viability (XMD8-85 + OSI-027; first compound 8 µM) of 0.532 and a relative viability (XMD8-85 + Linsitinib; first compound 0.08 µM) of 1.03. For the same cell line, the relative viability (XMD8-85 + Linsitinib; first compound 0.253 µM) was 0.95, the relative viability (XMD8-85 + Linsitinib; first compound 0.8 µM) was 1.03 and the relative viability (XMD8-85 + Linsitinib; first compound 2.53 µM) was 1.06. The relative viability (XMD8-85 + Linsitinib; first compound 8 µM) was 1.09, the relative viability (4EGI-1 + Luminespib; first compound 0.5 µM) was 0.082 and the relative viability (4EGI-1 + Luminespib; first compound 1.581 µM) was 0.129. For the same cell line, the relative viability (4EGI-1 + Luminespib; first compound 5 µM) was 0.0842, the relative viability (4EGI-1 + Luminespib; first compound 15.81 µM) was 0.106 and the relative viability (4EGI-1 + Luminespib; first compound 50 µM) was 0.084. It also gave a relative viability (XMD8-85 + Phenformin; first compound 0.08 µM) of 0.388, a relative viability (XMD8-85 + Phenformin; first compound 0.253 µM) of 0.383 and a relative viability (XMD8-85 + Phenformin; first compound 0.8 µM) of 0.389. For the same cell line, the relative viability (XMD8-85 + Phenformin; first compound 2.53 µM) was 0.373 and the relative viability (XMD8-85 + Phenformin; first compound 8 µM) was 0.32.

LOU-NH91 was tested, and the relative viability (XMD8-85 + OSI-027; first compound 0.08 µM) was 0.705, the relative viability (XMD8-85 + OSI-027; first compound 0.253 µM) was 0.735 and the relative viability (XMD8-85 + OSI-027; first compound 0.8 µM) was 0.672. It also gave a relative viability (XMD8-85 + OSI-027; first compound 2.53 µM) of 0.827, a relative viability (XMD8-85 + Linsitinib; first compound 0.08 µM) of 0.946 and a relative viability (XMD8-85 + Linsitinib; first compound 0.253 µM) of 0.979. The relative viability (XMD8-85 + Linsitinib; first compound 0.8 µM) was 0.909, the relative viability (XMD8-85 + Linsitinib; first compound 2.53 µM) was 0.914 and the relative viability (XMD8-85 + Linsitinib; first compound 8 µM) was 0.751. The relative viability (4EGI-1 + Luminespib; first compound 0.5 µM) was 0.351, the relative viability (4EGI-1 + Luminespib; first compound 5 µM) was 0.398 and the relative viability (4EGI-1 + Luminespib; first compound 15.81 µM) was 0.328. It also gave a relative viability (4EGI-1 + Luminespib; first compound 50 µM) of 0.34, a relative viability (XMD8-85 + Phenformin; first compound 0.08 µM) of 0.661 and a relative viability (XMD8-85 + Phenformin; first compound 0.253 µM) of 0.774. For the same cell line, the relative viability (XMD8-85 + Phenformin; first compound 2.53 µM) was 0.835 and the relative viability (XMD8-85 + Phenformin; first compound 8 µM) was 0.523.

In the case of NCI-H727, the relative viability (XMD8-85 + OSI-027; first compound 0.08 µM) is reported as 0.631, the relative viability (XMD8-85 + OSI-027; first compound 0.253 µM) is reported as 0.772 and the relative viability (XMD8-85 + OSI-027; first compound 0.8 µM) is reported as 0.705. The relative viability (XMD8-85 + OSI-027; first compound 2.53 µM) was 0.535, the relative viability (XMD8-85 + OSI-027; first compound 8 µM) was 0.359 and the relative viability (XMD8-85 + Linsitinib; first compound 0.08 µM) was 0.259. It also gave a relative viability (XMD8-85 + Linsitinib; first compound 0.253 µM) of 0.314, a relative viability (XMD8-85 + Linsitinib; first compound 0.8 µM) of 0.308 and a relative viability (XMD8-85 + Linsitinib; first compound 2.53 µM) of 0.231. It also gave a relative viability (XMD8-85 + Linsitinib; first compound 8 µM) of 0.215, a relative viability (4EGI-1 + Luminespib; first compound 0.5 µM) of 0.506 and a relative viability (4EGI-1 + Luminespib; first compound 1.581 µM) of 0.381. It also gave a relative viability (4EGI-1 + Luminespib; first compound 5 µM) of 0.273, a relative viability (4EGI-1 + Luminespib; first compound 15.81 µM) of 0.449 and a relative viability (4EGI-1 + Luminespib; first compound 50 µM) of 0.429. The relative viability (XMD8-85 + Phenformin; first compound 0.08 µM) was 0.503, the relative viability (XMD8-85 + Phenformin; first compound 0.253 µM) was 0.547 and the relative viability (XMD8-85 + Phenformin; first compound 0.8 µM) was 0.523. For the same cell line, the relative viability (XMD8-85 + Phenformin; first compound 2.53 µM) was 0.524 and the relative viability (XMD8-85 + Phenformin; first compound 8 µM) was 0.456.

Cell Line NCI-H2009 has a relative viability (XMD8-85 + OSI-027; first compound 0.08 µM) of 0.589, a relative viability (XMD8-85 + OSI-027; first compound 0.253 µM) of 0.704 and a relative viability (XMD8-85 + OSI-027; first compound 0.8 µM) of 0.638. For the same cell line, the relative viability (XMD8-85 + OSI-027; first compound 2.53 µM) was 0.508, the relative viability (XMD8-85 + OSI-027; first compound 8 µM) was 0.324 and the relative viability (XMD8-85 + Linsitinib; first compound 0.08 µM) was 1.17. The relative viability (XMD8-85 + Linsitinib; first compound 0.253 µM) was 1.12, the relative viability (XMD8-85 + Linsitinib; first compound 0.8 µM) was 1.21 and the relative viability (XMD8-85 + Linsitinib; first compound 2.53 µM) was 1.23. For the same cell line, the relative viability (XMD8-85 + Linsitinib; first compound 8 µM) was 0.636, the relative viability (4EGI-1 + Luminespib; first compound 0.5 µM) was 1.09 and the relative viability (4EGI-1 + Luminespib; first compound 1.581 µM) was 1.08. For the same cell line, the relative viability (4EGI-1 + Luminespib; first compound 5 µM) was 1.05, the relative viability (4EGI-1 + Luminespib; first compound 15.81 µM) was 0.954 and the relative viability (4EGI-1 + Luminespib; first compound 50 µM) was 0.994. For the same cell line, the relative viability (XMD8-85 + Phenformin; first compound 0.08 µM) was 0.496, the relative viability (XMD8-85 + Phenformin; first compound 0.253 µM) was 0.504 and the relative viability (XMD8-85 + Phenformin; first compound 0.8 µM) was 0.496. For the same cell line, the relative viability (XMD8-85 + Phenformin; first compound 2.53 µM) was 0.42 and the relative viability (XMD8-85 + Phenformin; first compound 8 µM) was 0.306.

With NCI-H23 the relative viability (XMD8-85 + OSI-027; first compound 0.08 µM) was 0.589, the relative viability (XMD8-85 + OSI-027; first compound 0.253 µM) was 0.692 and the relative viability (XMD8-85 + OSI-027; first compound 0.8 µM) was 0.614. The relative viability (XMD8-85 + OSI-027; first compound 2.53 µM) was 0.654, the relative viability (XMD8-85 + OSI-027; first compound 8 µM) was 0.409 and the relative viability (XMD8-85 + Linsitinib; first compound 0.08 µM) was 0.545. It also gave a relative viability (XMD8-85 + Linsitinib; first compound 0.253 µM) of 0.611, a relative viability (XMD8-85 + Linsitinib; first compound 0.8 µM) of 0.547 and a relative viability (XMD8-85 + Linsitinib; first compound 2.53 µM) of 0.513. For the same cell line, the relative viability (4EGI-1 + Luminespib; first compound 0.5 µM) was 0.221, the relative viability (4EGI-1 + Luminespib; first compound 5 µM) was 0.23 and the relative viability (4EGI-1 + Luminespib; first compound 15.81 µM) was 0.246. It also gave a relative viability (4EGI-1 + Luminespib; first compound 50 µM) of 0.179, a relative viability (XMD8-85 + Phenformin; first compound 0.08 µM) of 0.797 and a relative viability (XMD8-85 + Phenformin; first compound 0.253 µM) of 0.791. For the same cell line, the relative viability (XMD8-85 + Phenformin; first compound 0.8 µM) was 0.806, the relative viability (XMD8-85 + Phenformin; first compound 2.53 µM) was 0.694 and the relative viability (XMD8-85 + Phenformin; first compound 8 µM) was 0.774.

In the case of NCI-H2228, the relative viability (XMD8-85 + OSI-027; first compound 0.08 µM) is reported as 0.544, the relative viability (XMD8-85 + OSI-027; first compound 0.253 µM) is reported as 0.879 and the relative viability (XMD8-85 + OSI-027; first compound 0.8 µM) is reported as 0.686. For the same cell line, the relative viability (XMD8-85 + OSI-027; first compound 2.53 µM) was 0.6, the relative viability (XMD8-85 + OSI-027; first compound 8 µM) was 0.336 and the relative viability (XMD8-85 + Linsitinib; first compound 0.08 µM) was 0.587. The relative viability (XMD8-85 + Linsitinib; first compound 0.253 µM) was 0.944, the relative viability (XMD8-85 + Linsitinib; first compound 0.8 µM) was 0.609 and the relative viability (XMD8-85 + Linsitinib; first compound 2.53 µM) was 0.858. The relative viability (XMD8-85 + Linsitinib; first compound 8 µM) was 0.444, the relative viability (4EGI-1 + Luminespib; first compound 0.5 µM) was 0.147 and the relative viability (4EGI-1 + Luminespib; first compound 1.581 µM) was 0.148. The relative viability (4EGI-1 + Luminespib; first compound 5 µM) was 0.258, the relative viability (4EGI-1 + Luminespib; first compound 15.81 µM) was 0.135 and the relative viability (4EGI-1 + Luminespib; first compound 50 µM) was 0.17. It also gave a relative viability (XMD8-85 + Phenformin; first compound 0.08 µM) of 0.235, a relative viability (XMD8-85 + Phenformin; first compound 0.253 µM) of 0.293 and a relative viability (XMD8-85 + Phenformin; first compound 0.8 µM) of 0.34. It also gave a relative viability (XMD8-85 + Phenformin; first compound 2.53 µM) of 0.334 and a relative viability (XMD8-85 + Phenformin; first compound 8 µM) of 0.261.

— the supplement of paper PMC10307832
